Measured values taken from patent publication US9000002B2, “N1-substituted-5-fluoro-2-oxopyrimidinone-1(2H)-carboxamide derivatives” (Dow Agrosciences LLC, priority 2009, dated 2015).
Read-outs that look alike come from different tables or passages of the source.

Key:
[1] = tested on: Mycosphaerella graminicola; Anamorph: Septoria tritici; Bayer Code SEPTTR; test: Evaluation of fungicidal activity: leaf blotch of wheat (SEPTTR), wheat plants variety Yuma; format: in vivo; conditions: Zymoseptoria tritici
Experimental: Evaluation of Fungicidal Activity: Leaf Blotch of Wheat (Mycosphaerella graminicola; Anamorph: Septoria tritici; Bayer Code […]) Wheat plants (variety Yuma) were grown from seed in a greenhouse in 50% mineral soil/50% soil-less Metro mix until the first leaf was fully emerged, with 7-10 seedlings per pot. These plants were inoculated with an aqueous spore suspension of Septoria tritici either prior to or after fungicide treatments. After inoculation the plants were kept in 100% relative humidity (one day in a dark dew chamber followed by two to three days in a lighted dew chamber) to permit spores to germinate and infect the leaf. The plants were then transferred to a greenhouse for disease to develop. The following table presents the activity of typical compounds of the present disclosure when evaluated in these experiments. The effectiveness of the test compounds in controlling disease was determined by assessing the severity of disease on treated plants, then converting the severity to percent control based on the level of disease on untreated, inoculated plants. • In each case of Table II the rating scale is as follows: […]

[2] = 24 h, One-Day Protectant (1DP), 100 ppm, wheat plants, percent control vs untreated inoculated plants, read-out: SEPTTR 100 PPM 1DP (% Disease Control rating)
[3] = 72 h, Three-Day Curative (3DC), 100 ppm, wheat plants, percent control vs untreated inoculated plants, read-out: SEPTTR 100 PPM 3DC (% Disease Control rating)

| Structure (SMILES) | melting point | pest or weed control at 100 ppm [1, 2] [%] | pest or weed control at 100 ppm [1, 3] [%] | pest or weed control at 100 ppm ([1]; 24 h, read-out: SEPTTR 100 PPM 1DP (% Disease Control rating)) [%] | pest or weed control at 100 ppm ([1]; 72 h, read-out: SEPTTR 100 PPM 3DC (% Disease Control rating)) [%] |
| --- | --- | --- | --- | --- | --- |
| O=C(Nc1ccc(F)cc1F)n1cc(F)c(NCc2ccccc2F)nc1=O [Compound 29] | 150 to 153 °C | 0 to 25 | 26 to 50 | – | – |
| CCNC(=O)n1cc(F)c(NC(=O)C(C)C)nc1=O [Compound 45] | 226 to 228 °C | 76 to 100 | 76 to 100 | – | – |
| CCN(CC)C(=S)n1cc(F)c(/N=C/N(C)C)nc1=O [Compound 33, (E)-4-((dimethylamino)methyleneamino)-N,N-diethyl-5-fluoro-2-oxopyrimidine-1(2H)-carbothioamide] | 118 to 123 °C | 0 to 25 | 26 to 50 | – | – |
| CCNC(=O)n1cc(F)c(NC(=O)c2ccccc2Cl)nc1=O [Compound 46] | 239 to 241 °C | 76 to 100 | 51 to 75 | – | – |
| CC(=O)Nc1nc(=O)n(C(=O)NCc2ccc(Cl)cc2)cc1F [Compound 47] | 170 to 172 °C | 76 to 100 | 76 to 100 | – | – |
| O=C(Nc1nc(=O)n(C(=O)NCc2ccc(Cl)cc2)cc1F)c1ccccc1 [Compound 48] | 210 to 212 °C | 76 to 100 | 76 to 100 | – | – |
| Cc1ccc(NC(=O)n2cc(F)c(NCc3ccccc3F)nc2=O)cc1 [Compound 30] | 158 to 162 °C | 0 to 25 | 26 to 50 | – | – |
| CCCNC(=O)n1cc(F)c(NC(C)=O)nc1=O [Compound 39] | 233 to 235 °C | 76 to 100 | 76 to 100 | – | – |
| CN(C)/C=N/c1nc(=O)n(C(=O)NCc2ccccc2)cc1F [Compound 3, (E)-N-benzyl-4-((dimethylamino)methyleneamino)-5-fluoro-2-oxopyrimidine-1(2H)-carboxamide] | 147 to 150 °C | 76 to 100 | 76 to 100 | – | – |
| CCCNC(=O)n1cc(F)c(NCc2ccccc2F)nc1=O [Compound 32] | 113 to 116 °C | 26 to 50 | 51 to 75 | – | – |
| CCOC(=O)CCNC(=O)n1cc(F)c(/N=C/N(C)C)nc1=O [Compound 2] | 232 to 236 °C | 76 to 100 | 76 to 100 | – | – |
| CCNC(=O)n1cc(F)c(NC(C)=O)nc1=O [Compound 38, 4-acetamido-N-ethyl-5-fluoro-2-oxopyrimidine-1(2H)-carboxamide] | 233 to 235 °C | 76 to 100 | 76 to 100 | – | – |
| CN(C(=S)n1cc(F)c(N)nc1=O)c1cccc(C(F)(F)F)c1 [Compound 35] | 126 to 131 °C | 76 to 100 | 76 to 100 | – | – |
| CCCNC(=O)n1cc(F)c(/N=C/N(C)C)nc1=O [Compound 1, 4-(dimethylamino-methyleneamino)-5-fluoro-2-oxo-2H-pyrimidine-1-carboxylic acid propylamide] | 266 to 268 °C | 76 to 100 | 76 to 100 | – | – |
| COc1ccccc1CNC(=O)Nc1nc(=O)n(C(=O)NCc2ccccc2F)cc1F [Compound 53] | 229 to 231 °C | 0 to 25 | 0 to 25 | – | – |
| CCCCCNC(=O)n1cc(F)c(N)nc1=O [Compound 4, 4-amino-5-fluoro-2-oxo-N-pentylpyrimidine-1(2H)-carboxamide] | 289 to 292 °C | 76 to 100 | 76 to 100 | – | – |
| Nc1nc(=O)n(C(=O)Nc2ccccc2)cc1F [Compound 6, 4-amino-5-fluoro-2-oxo-N-phenylpyrimidine-1(2H)-carboxamide] | 275 to 277 °C (dec.) | – | – | 76 to 100 | 76 to 100 |

Further lines, with some results ahead:

| melting point | Structure (SMILES) | pest or weed control at 100 ppm [1, 2] [%] | pest or weed control at 100 ppm [1, 3] [%] | pest or weed control at 100 ppm ([1]; 24 h, read-out: SEPTTR 100 PPM 1DP (% Disease Control rating)) [%] | pest or weed control at 100 ppm ([1]; 72 h, read-out: SEPTTR 100 PPM 3DC (% Disease Control rating)) [%] |
| --- | --- | --- | --- | --- | --- |
| 282 to 284 °C | Nc1nc(=O)n(C(=O)Nc2ccc3sccc3c2)cc1F [Compound 19] | 76 to 100 | 76 to 100 | – | – |
| 254 to 257 °C | N#Cc1ccc(NC(=O)n2cc(F)c(N)nc2=O)cc1 [Compound 13] | 76 to 100 | 51 to 75 | – | – |
| 291 to 294 °C | CC(C)NC(=O)n1cc(F)c(N)nc1=O [Compound 24] | 76 to 100 | 76 to 100 | – | – |
| 248 to 250 °C | CCCCCNC(=O)n1cc(F)c(NC(=O)NCc2ccccc2OC)nc1=O [Compound 52] | 0 to 25 | 0 to 25 | – | – |
| 192 to 196 °C | CN(C(=S)n1cc(F)c(N)nc1=O)c1ccccc1 [Compound 34, 4-amino-5-fluoro-N-methyl-2-oxo-N-phenylpyrimidine-1(2H)-carbothioamide] | 76 to 100 | 76 to 100 | – | – |
| 251 to 253 °C | COc1ccccc1CNC(=O)Nc1nc(=O)n(C(=O)NC(C)C)cc1F [Compound 50] | 0 to 25 | 0 to 25 | – | – |
| 261 to 264 °C | Nc1nc(=O)n(C(=O)Nc2ccc(Cl)cc2)cc1F [Compound 12] | 76 to 100 | 76 to 100 | – | – |
| 257 to 260 °C | Cc1ccc(NC(=O)n2cc(F)c(N)nc2=O)cc1 [Compound 15] | 76 to 100 | 76 to 100 | – | – |
| 258 to 261 °C | Nc1nc(=O)n(C(=O)Nc2ccccc2Cl)cc1F [Compound 8] | 76 to 100 | 76 to 100 | – | – |
| 248 to 250 °C | CCCNC(=O)n1cc(F)c(NC(=O)NCc2ccccc2OC)nc1=O [Compound 51] | 0 to 25 | 0 to 25 | – | – |
| 290 to 293 °C | CCCNC(=O)n1cc(F)c(N)nc1=O [Compound 23] | 76 to 100 | 76 to 100 | – | – |
| 252 to 255 °C | COc1ccc(NC(=O)n2cc(F)c(N)nc2=O)cc1 [Compound 10] | 76 to 100 | 76 to 100 | – | – |
| 295 to 298 °C | COCCCNC(=O)n1cc(F)c(N)nc1=O [Compound 27] | 76 to 100 | 76 to 100 | – | – |
| 260 to 262 °C | Nc1nc(=O)n(C(=O)NCc2ccccc2F)cc1F [Compound 22] | 76 to 100 | 76 to 100 | – | – |
| 277 to 280 °C (dec.) | COc1ccccc1NC(=O)n1cc(F)c(N)nc1=O [Compound 7] | 76 to 100 | 76 to 100 | – | – |
| 277 to 280 °C (dec.) | Cc1ccccc1NC(=O)n1cc(F)c(N)nc1=O [Compound 9] | 76 to 100 | 76 to 100 | – | – |
| 223 to 226 °C | CCN(C(=S)n1cc(F)c(N)nc1=O)c1ccccc1 [Compound 37] | 76 to 100 | 76 to 100 | – | – |
